Assay results from patent US8096419B2, “Compound” (PCI Biotech AS, priority 2001, dated 2012).
“Also recorded” adds a separate entry of the source.

Experiments:
[1] = system: V79 cells; assay: Inhibition of protein synthesis by [3H]-leucine incorporation (PCI of gelonin); format: cell-based, Chinese hamster
Method: (§1) Cells of the established line V79 (ATCC CCL-93) derived from Chinese hamster lung fibroblasts were used. The cells were grown in MEM medium containing 10% foetal calf serum (FCS from Gibco, Paisley, UK), 100 U ml^−1 penicillin and 100 μg ml^−1 streptomycin (Gibco) at 37° C. in an incubator flushed with 5% CO2 in air. The cells were subcultured twice a week.
(§2) The cells were inoculated in 25 cm^2 flasks (Nunclon, Denmark) containing MEM medium with 10% FCS and left at 37° C. for 4-5 hours for proper attachment to the substratum. Subsequently, the cells were washed 3 times with medium and exposed to 1 μg/ml TPPS2a or TPCS2a in serum-containing medium for 18 hours. The cells were subsequently washed 3 times with the sensitizer-free medium and incubated for 1 hour before light exposure. The cells were then exposed to red light (Phillips TL 20 W/09) filtered through a Cinemoid 35 filter or blue light (Appl. Photophysics, Nood. 3026, London). The fluence rates reaching the cells were 1.35 mW/cm^2 and 1.5 mW/cm^2 from the red and the blue lamps respectively.
Cell survival was measured by the colony-forming test as described by Berg et al. (Photochem. Photobiol. 53: 203-210, 1991). 1500 cells were inoculated in 25 cm^2 plastic tissue-culture flasks and treated with the photosensitizer and light as described above. After photochemical treatment the V79 cells were left for 5 days at 37° C. in serum-containing culture medium to allow for formation of countable colonies. The cells were then fixed in ethanol, stained with methylene blue and the colonies counted. Inhibition of protein synthesis was assessed by [^3H]-leucine incorporation into proteins, measured at 24 hours post light exposure as described by Llorente et al. (FEBS Lett. 431: 200-204, 1998).

[2] = Absorption spectra on photochemical reduction of TPPS2a; format: physicochemical; conditions: benzene/TEA, peak shifted from 646 nm to 655 nm
Method: A mixture of 950 μl benzene/triethylamine (TEA) (18:7), 32 μl dimethyl sulfoxide (DMSO) and 18 μl TPPS2a (from a solution of 1 mg/ml in DMSO) was prepared and saturated with nitrogen for 5 min in a 1 ml cuvette. The mixture was then exposed to light from a 500 W high pressure Xenon lamp fitted to a Bausch and Lomb grating monochromator. The cuvette was exposed to 545±15 nm light at 15 W/m^2. The fluence rate was monitored by means of a UDT 11 A photodetector with a 223 radiometric filter. The absorption spectra was measured regularly by a Perkin-Elmer Lambda 15 UV/VIS spectrophotometer. The light pass was 1 cm.
In accordance with the method described by Harel et al. (Photochem. Photobiol. 23: 337-341, 1976), TPPS2a was exposed to light in a solution of triethylamine (TEA) in benzene saturated with nitrogen. The solution was exposed to light of 545 nm in a cuvette as described above in “Materials and Methods”.

[3] = system: V79 cells; assay: Cell survival by colony-forming test after photosensitizer and light; format: cell-based, Chinese hamster
Method: as §1
as §2, with “The fluence rates reaching the cells were 1.35 mW/cm^2 and 1.5 mW/cm^2 from the red and the blue lamps respectively.” left out
Cell survival was measured by the colony-forming test as described by Berg et al. (Photochem. Photobiol. 53: 203-210, 1991). […] The cells were then fixed in ethanol, stained with methylene blue and the colonies counted. Inhibition of protein synthesis was assessed by [^3H]-leucine incorporation into proteins, measured at 24 hours post light exposure as described by Llorente et al. (FEBS Lett. 431: 200-204, 1998).

[4] = system: V79 cells; conditions: Berg et al. Cancer Res. 59: 1180-1183, 1999; cited from earlier work

In the case of “Tetraphenyl chlorin disulfonate [TPCS2a]”, the “potentiation of the cytotoxicity of gelonin by TPCS2a and light” value ([1]; 1 μg/ml TPCS2a plus 1 μg/ml gelonin, red light, protein synthesis 24 hours after exposure to light) is reported as “strongly potentiate”, the “reduction in protein synthesis induced by TPCS2a alone” value ([1]; 1 μg/ml TPCS2a, without gelonin) is reported as 20% and the “increase in the extinction coefficient of band I of the Q-bands versus TPPS2a” value [2] is reported as 5.8 fold. For the same substance, the “sensitivity of treated cells to photoinactivation with blue light relative to TPPS2a” value ([3]; 18 hours incubation with sensitizer, 1 hour sensitizer-free medium, blue light, versus TPPS2a) was “equally sensitive; also recorded: equally efficient” and the “reduction induced by TPCS2a alone in the clonogenicity assay” value ([3]; TPCS2a alone) was “not observed”.
For “gelonin: type I ribosome-inactivating protein toxin, transfer molecule for PCI”, the “toxicity of gelonin alone or in combination with light (literature)” value [4] is given as “low toxicity” and the “reduction of protein synthesis by gelonin alone” value ([1]; 1 μg/ml gelonin for 18 hours) is given as “about 10%”.
